In one experiment the target is T1, GluN1+NR2A (Homo sapiens, UniProt Q05586+Q12879).
T1 construct: expressed in transfected cells; host or cells: CHO cells
Description: Whole-cell patch clamp, blocking of GluN1+NR2A NMDAR current in CHO cells. It is filed as cell-based. To be noted: 100 μM NMDA and 1 μM glycine, read-out: IC50 of competitive antagonism against glutamate binding GluN1+NR2A currents. The procedure: Figure a illustrates LK-2 concentration-dependent blocking of signal of GluN1+GluN2A and GluN1+GluN2B subtypes of NMDAR currents (recorded from the same CHO cell) in patch clamp experiments, with 100 μM NDMA and 1 μM glycine used to activate NMDAR currents. LK-2 concentrations were 1, 10, 100, and 500 μM in sequence. Figure b illustrates the dose-response curves fitted based on the current amplitudes recorded in Figure a, with IC50 representing the half-maximal inhibitory concentration. Smaller IC50 values indicate stronger blocking effects of the compound.
[drawing 3] • 2. Electrophysiological experiments refer to the use of patch clamp techniques to overexpress ASICs (ASIC1a) and NMDARs (GluNR1+NR2A or GluNR1+NR2B) in CHO cell lines (Chinese hamster ovary cells), with the above-mentioned proteins carrying GFP green fluorescent protein for identification under fluorescence microscopy. The synthesized small molecules are separately tested for their blocking effects on the currents generated by the two types of receptors, and the IC50 values are calculated. • 2.1 The experimental steps of the membrane clamp technique are as follows.
Whole-cell patch clamp recordings were performed on neurons or CHO cells cultured in a cell-culture dish mounted on a fixed stage upright microscope. The recording electrode (resistance 4-6 MΩ) was made of 1.5 mm borosilicate glass. […]
On the technique in general: In patch-clamp work, channel activity is measured electrically.

A further experiment has as its system MCAO model. Description: MCAO cerebral ischemia model, rotarod motor function test. It is filed as in vivo, mice. To be noted: 30 mg/kg, seven days after brain injury. The procedure:
Figure a illustrates the experimental process, where drug intervention (using a concentration of 30 mg/kg of LK-2) was conducted 30 minutes after modeling, and the first brain function test (rotarod test) was performed 24 hours after modeling. The second brain function test was conducted 7 days later, with 5 training tests followed by 1 formal test in each rotarod test. Figure b illustrates the time taken for mice to fall off the rotarod during the 5 training tests, where longer time indicates better motor function. […] Figure c illustrates the analysis results of motor ability in the formal test conducted 24 hours and 7 days after modeling for each group of mice. • 3.4 The animal model of cerebral ischemic stroke, known as the middle cerebral artery occlusion (MCAO) model, is a classic model used to simulate individual patients with ischemic stroke, and evaluate the size of cerebral infarction and motor function (evaluate through the rotarod test, including assessment of motor learning and coordination, the experimental design process is illustrated in FIG. 8a) in model animals after drug intervention. The specific steps are as follows: a transient focal ischemic model was formed by occluding the middle cerebral artery for 30 minutes in wild-type or ASIC1a gene knockout mice. […] In this test, mice were placed on the rotating rod and the time to fall was recorded. […]
On the technique in general: In the rotarod test animals must keep their balance on a rotating rod.

The term IC50 denotes the concentration that gives 50% inhibition.

The structures appear in SMILES notation.

T1 sequence (Q12879 23-1464, other chains not shown): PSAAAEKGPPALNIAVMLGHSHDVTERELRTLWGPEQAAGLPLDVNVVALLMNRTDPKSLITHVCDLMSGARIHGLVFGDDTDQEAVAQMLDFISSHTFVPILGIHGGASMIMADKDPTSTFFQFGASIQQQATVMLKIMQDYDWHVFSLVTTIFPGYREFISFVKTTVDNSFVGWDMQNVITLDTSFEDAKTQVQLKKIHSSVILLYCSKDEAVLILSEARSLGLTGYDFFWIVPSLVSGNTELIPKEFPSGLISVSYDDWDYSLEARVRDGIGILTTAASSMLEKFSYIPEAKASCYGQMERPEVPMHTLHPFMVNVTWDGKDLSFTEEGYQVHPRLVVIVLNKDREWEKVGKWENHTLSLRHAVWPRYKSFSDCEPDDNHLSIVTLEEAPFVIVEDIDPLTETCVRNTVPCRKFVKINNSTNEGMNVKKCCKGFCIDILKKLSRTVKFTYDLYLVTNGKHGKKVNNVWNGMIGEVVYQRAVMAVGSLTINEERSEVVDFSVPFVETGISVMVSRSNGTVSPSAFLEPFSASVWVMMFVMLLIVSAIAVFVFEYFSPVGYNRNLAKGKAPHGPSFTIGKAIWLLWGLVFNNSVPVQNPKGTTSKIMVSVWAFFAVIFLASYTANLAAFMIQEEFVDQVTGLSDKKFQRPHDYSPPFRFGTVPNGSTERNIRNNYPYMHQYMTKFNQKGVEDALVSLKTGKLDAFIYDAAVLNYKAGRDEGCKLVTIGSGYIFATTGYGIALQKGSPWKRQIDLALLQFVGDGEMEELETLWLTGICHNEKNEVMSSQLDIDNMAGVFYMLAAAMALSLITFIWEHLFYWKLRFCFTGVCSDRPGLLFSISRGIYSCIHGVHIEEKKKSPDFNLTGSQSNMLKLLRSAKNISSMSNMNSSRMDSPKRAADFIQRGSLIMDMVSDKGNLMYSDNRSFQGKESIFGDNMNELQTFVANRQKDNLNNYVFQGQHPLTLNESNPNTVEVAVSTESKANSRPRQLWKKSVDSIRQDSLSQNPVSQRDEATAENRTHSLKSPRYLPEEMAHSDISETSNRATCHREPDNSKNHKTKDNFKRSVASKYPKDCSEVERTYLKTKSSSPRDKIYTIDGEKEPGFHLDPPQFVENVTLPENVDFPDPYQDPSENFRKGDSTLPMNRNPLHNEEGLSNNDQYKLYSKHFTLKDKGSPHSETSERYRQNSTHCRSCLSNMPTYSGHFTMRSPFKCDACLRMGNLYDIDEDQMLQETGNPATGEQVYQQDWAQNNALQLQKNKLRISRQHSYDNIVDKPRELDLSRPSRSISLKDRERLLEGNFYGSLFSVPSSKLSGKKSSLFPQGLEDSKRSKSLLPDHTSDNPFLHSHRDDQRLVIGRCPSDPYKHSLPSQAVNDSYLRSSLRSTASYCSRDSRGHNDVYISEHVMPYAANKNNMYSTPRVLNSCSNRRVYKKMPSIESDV

As for `O=C(O)C1CN(C(c2ccccc2)P(=O)(O)O)CCN1` (stereo not drawn) [LK-2], on GluN1+NR2A, the IC50 is 93.1 ± 28.3 µM. Besides, in the experiment with MCAO model (rotarod training tests), the motor learning ability entry is on record as “significant improvement”. In addition, in the experiment with MCAO model (rotarod), the “overall improvement in motor function” value is on record as 51.6%.
